Each structure is given as a SMILES string.

Data set [1] has as its system Ovarian Cancer cell lines. Briefly: NCI DTP human tumor cell line screen, ovarian cancer panel. The data set is classed as cell-based. The following applies: Ovarian Cancer (6 cell lines). The text has this:
(§1) The United States National Cancer Institute (NCI) provides a developmental therapeutics program (DTP) (http://dtp.nci.nih.gov/branches/btb/ivelsp.html) to screen submitted substances in support of cancer drug discovery. The In Vitro Cell Line Screening Project (IVCLSP) is a dedicated service providing direct support to the DTP anticancer drug discovery program and is designed to screen up to 3,000 compounds per year for potential anticancer activity. The operation of this screen utilizes 60 different human tumor cell lines, representing leukemia, melanoma and cancers of the lung, colon, brain, ovary, breast, prostate, and kidney. The aim is to prioritize for farther evaluation, synthetic compounds or natural product samples showing selective growth inhibition or cell killing of particular tumor cell lines. This screen is unique in that the complexity of a 60 cell line dose response produced by a given compound results in a biological response pattern which can be utilized in pattern recognition algorithms (COMPARE program. See: http://dtp.nci.nih.gov/docs/compare/compare.html). Using these algorithms, it is possible to assign a putative mechanism of action to a test compound, or to determine that the response pattern is unique and not similar to that of any of the standard prototype compounds included in the NCI database. […]

In a further data set the test system is Melanoma cell lines. Nature of the data set: NCI DTP human tumor cell line screen, melanoma panel. The data set is classed as cell-based. The following applies: Melanoma (8 cell lines).
From the text: as §1

Data set [2] in a line: Non-specific binding to 24-well assay plate without cells. The data set is classed as in vitro ADME. The note with it: single well of a 24-well assay plate without cells, nominal conc. 1.0 μM, single well of 24-well plate without cells. As to the method:
To determine the extent of non-specific binding of the sample to the assay plate, the sample solution was incubated under the conditions described above in a single well of a 24-well assay plate. After 90 minutes, the sample was removed from each well for analysis. After all samples were collected, lucifer yellow solution was added to each monolayer at a final concentration of 100 μM. The inserts were placed in a new receiver plate containing transport buffer. After a 30 min. incubation on an orbital shaker (50 rpm) at 37° C., with ambient humidity and CO2, samples were removed from the receiver chamber to measure percent lucifer yellow flux.
The recovery of Compound A from the apical and basolateral chambers (mass balance) as well as from a single well of a 24-well culture plate without cells (non-specific binding) at the end of the incubation is reported in Table 9.

As for `C[C@H](Cc1ccc(OCCCN2CCCCC2)c(OCCCN2CCCCC2)c1)[C@@H](C)Cc1ccc(OCCCN2CCCCC2)c(OCCCN2CCCCC2)c1` [Compound A, 1,4-bis{3,4-bis[3-(piperidin-1-yl)propoxy]phenyl}-2,3-dimethyl-(2R,3S)-butane], the “Mean Growth Percent at 10 μM” value was −85.89% in data set [1] and −92.38% in the data set with Melanoma cell lines. The recovery at 90 min, 1 μM in data set [2] stood at 13%.

For the origin of these results see patent US20150374709A1, “TETRA-SUBSTITUTED NDGA DERIVATIVES VIA ETHER BONDS AND CARBAMATE BONDS AND THEIR SYNTHESIS AND PHARMACEUTICAL USE” (ERIMOS PHARMACEUTICALS LLC, priority 2006, published 2015).
